Measurements published in ChEMBL document CHEMBL1133352, “Synthesis and endothelin receptor binding activity of synthetic analogues of RES-1149-2” (Bioorg Med Chem Lett, 2000).

Key:
Endothelin-1 receptor = target: T1, Endothelin-1 receptor (Homo sapiens, UniProt P25101); test: Tested for binding affinity towards human Endothelin A receptor
T1 sequence (P25101 whole entry): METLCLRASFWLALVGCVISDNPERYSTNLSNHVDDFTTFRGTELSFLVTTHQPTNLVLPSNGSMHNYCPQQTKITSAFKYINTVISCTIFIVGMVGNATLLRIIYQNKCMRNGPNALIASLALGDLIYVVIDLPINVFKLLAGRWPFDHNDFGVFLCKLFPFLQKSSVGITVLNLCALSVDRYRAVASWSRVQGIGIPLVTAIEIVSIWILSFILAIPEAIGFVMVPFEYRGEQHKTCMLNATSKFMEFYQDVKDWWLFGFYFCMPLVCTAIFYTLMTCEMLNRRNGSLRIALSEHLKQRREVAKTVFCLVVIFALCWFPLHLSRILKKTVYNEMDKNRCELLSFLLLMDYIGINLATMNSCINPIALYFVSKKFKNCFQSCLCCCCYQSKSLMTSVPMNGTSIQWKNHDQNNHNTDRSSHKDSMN

[1] = target: T2, Endothelin receptor type B (Homo sapiens, UniProt P24530); test: Tested for binding affinity towards human Endothelin B receptor
T2 sequence (P24530 whole entry): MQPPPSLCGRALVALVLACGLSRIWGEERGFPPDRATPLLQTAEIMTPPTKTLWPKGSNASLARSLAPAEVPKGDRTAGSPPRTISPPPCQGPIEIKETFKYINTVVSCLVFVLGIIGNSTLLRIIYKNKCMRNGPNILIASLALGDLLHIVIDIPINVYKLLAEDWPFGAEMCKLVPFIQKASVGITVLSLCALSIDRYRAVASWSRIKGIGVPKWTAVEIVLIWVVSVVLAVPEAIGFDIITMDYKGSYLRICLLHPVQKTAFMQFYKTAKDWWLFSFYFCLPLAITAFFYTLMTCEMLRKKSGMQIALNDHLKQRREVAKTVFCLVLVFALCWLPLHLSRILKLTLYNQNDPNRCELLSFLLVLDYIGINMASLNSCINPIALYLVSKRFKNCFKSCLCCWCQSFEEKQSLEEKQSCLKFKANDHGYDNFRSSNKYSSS

Row | IC50 (Endothelin-1 receptor) | SMILES | IC50 [1]
1 | 62 µM | C/C=C/C=C/C=C/C(=O)O[C@@H]1C=C2COC(O)[C@]2(O)[C@@]2(C)CCCC(C)(C)C12 (stereo partly drawn) | 
2 | 8.2 µM | C/C=C/C=C/C(=O)O[C@@H]1C=C2COC(OC)[C@]2(O)CC1 (stereo partly drawn) | > 25 µM
3 |  | C/C=C/C=C/C(=O)O[C@@H]1C=C2COC(O)[C@]2(O)CC1 (stereo partly drawn) | > 25 µM
4 | > 250 µM | C/C=C/C=C/C(=O)O[C@@H]1C=C2COC(O)[C@]2(O)[C@@]2(C)CCCC(C)(C)C12 (stereo partly drawn) | 148 µM

Row | SMILES | IC50 (Endothelin-1 receptor) | IC50 [1]
5 | C/C=C/C=C/C(=O)O[C@@H]1C=C2COC(=O)[C@]2(O)CC1 | 2.6 µM | > 25 µM
